For series [1] the following is noted: rats.
Series [2] deals with T1, CYP2C9 (Homo sapiens, UniProt P11712). As to the kind of experiment: biochemical.
The target of series [3] is T2, cyp2c11 (Rattus norvegicus, UniProt P08683).
T2 sequence (P08683 1-500): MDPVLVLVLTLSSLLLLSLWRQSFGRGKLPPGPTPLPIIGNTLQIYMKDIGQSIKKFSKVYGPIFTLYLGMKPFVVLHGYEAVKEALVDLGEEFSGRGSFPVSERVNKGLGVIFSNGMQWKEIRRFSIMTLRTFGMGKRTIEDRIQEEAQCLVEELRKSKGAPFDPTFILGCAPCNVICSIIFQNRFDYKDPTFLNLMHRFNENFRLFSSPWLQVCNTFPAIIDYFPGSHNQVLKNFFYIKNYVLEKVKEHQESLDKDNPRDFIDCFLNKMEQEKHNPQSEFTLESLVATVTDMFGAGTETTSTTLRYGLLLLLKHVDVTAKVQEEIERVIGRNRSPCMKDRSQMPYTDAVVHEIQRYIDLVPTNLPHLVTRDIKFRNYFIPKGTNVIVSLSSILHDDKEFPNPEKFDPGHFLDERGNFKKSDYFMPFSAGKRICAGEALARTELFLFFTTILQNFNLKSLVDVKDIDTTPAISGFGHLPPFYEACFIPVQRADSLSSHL
As to the kind of experiment: Inhibition of tolbutamide metabolism by avitinib in rat liver microsomes. In general terms: Liver microsomes are a subcellular fraction often used to study metabolism.

Series [4] deals with T3, cyp2d1 (Rattus norvegicus, UniProt P10633).
T3 sequence (P10633 1-504): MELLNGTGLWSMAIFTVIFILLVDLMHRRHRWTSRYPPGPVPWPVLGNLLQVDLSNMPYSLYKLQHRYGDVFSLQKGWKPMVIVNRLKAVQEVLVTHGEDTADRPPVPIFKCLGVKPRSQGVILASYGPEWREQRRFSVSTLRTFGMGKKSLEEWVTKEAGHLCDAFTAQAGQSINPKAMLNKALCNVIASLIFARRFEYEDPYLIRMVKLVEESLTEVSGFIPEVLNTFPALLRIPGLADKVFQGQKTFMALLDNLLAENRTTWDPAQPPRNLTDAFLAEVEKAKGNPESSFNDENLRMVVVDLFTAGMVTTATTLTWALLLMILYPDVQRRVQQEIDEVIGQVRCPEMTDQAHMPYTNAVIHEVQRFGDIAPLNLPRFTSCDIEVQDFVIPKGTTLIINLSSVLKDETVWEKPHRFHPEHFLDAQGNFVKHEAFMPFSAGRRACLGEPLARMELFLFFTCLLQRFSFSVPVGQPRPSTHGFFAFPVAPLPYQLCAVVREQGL
The experiment in a line: Inhibition of dextromethorphan metabolism by avitinib in rat liver microsomes.

In series [5] the target is T4, CYP2D6 (Homo sapiens, UniProt P10635). The experiment in a line: biochemical.
In series [6] the target is T5, cyp2b1 (Rattus norvegicus, UniProt P00176).
T5 sequence (P00176 1-491): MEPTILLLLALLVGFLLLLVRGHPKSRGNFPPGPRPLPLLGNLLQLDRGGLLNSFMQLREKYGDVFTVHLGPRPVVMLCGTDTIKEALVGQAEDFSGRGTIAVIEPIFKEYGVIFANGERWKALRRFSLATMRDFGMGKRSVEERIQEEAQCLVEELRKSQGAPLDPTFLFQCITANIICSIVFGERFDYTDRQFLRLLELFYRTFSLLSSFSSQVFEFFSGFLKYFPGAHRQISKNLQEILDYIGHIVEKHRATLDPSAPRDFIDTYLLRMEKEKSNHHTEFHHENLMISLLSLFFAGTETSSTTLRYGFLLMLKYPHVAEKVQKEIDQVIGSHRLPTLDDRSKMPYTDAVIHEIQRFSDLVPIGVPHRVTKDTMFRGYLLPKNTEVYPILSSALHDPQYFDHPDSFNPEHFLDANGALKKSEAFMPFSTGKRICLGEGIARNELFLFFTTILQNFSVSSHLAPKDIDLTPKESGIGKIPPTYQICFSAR
The experiment in a line: Inhibition of bupropion metabolism by avitinib in rat liver microsomes.

The target of series [7] is T6, CYP1A2 (Homo sapiens, UniProt P05177).
T6 sequence (P05177 1-516): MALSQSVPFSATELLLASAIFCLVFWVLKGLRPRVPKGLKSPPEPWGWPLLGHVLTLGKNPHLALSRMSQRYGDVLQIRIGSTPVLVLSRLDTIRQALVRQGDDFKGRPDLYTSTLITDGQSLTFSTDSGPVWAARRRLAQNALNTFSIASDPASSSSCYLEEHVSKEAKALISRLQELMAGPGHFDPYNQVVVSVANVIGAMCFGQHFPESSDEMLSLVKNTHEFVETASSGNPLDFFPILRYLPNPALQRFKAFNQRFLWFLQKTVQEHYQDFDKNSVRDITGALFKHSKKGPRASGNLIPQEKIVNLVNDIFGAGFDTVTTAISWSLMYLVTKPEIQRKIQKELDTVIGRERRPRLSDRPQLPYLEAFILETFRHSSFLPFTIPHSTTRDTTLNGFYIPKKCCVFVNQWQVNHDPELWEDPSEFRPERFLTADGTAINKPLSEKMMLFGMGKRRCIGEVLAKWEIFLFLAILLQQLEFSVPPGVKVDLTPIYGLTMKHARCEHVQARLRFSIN
To be noted: HLMs.

Series [8] has as its target T7, CYP2B6 (Homo sapiens, UniProt P20813).
T7 sequence (P20813 1-491): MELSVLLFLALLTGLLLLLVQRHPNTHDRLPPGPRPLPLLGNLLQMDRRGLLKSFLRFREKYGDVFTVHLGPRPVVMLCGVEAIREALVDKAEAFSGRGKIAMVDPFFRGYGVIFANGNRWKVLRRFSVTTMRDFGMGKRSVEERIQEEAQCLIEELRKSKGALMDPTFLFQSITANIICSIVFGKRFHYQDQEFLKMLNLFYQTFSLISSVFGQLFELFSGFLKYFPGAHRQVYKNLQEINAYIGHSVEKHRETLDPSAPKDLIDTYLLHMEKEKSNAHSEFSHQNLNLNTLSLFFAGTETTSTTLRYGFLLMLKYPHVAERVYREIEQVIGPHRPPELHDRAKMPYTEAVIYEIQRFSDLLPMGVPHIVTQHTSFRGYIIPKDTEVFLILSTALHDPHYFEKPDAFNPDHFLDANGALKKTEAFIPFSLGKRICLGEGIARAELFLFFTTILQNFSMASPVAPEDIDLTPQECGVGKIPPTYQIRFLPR
As to the kind of experiment: biochemical.

The target of series [9] is T4, CYP2D6. To be noted: HLMs.
In series [10] the target is T6, CYP1A2. The experiment in a line: biochemical.
Series [11] concerns the target cyp2e1 (Rattus norvegicus, UniProt P05182). As to the kind of experiment: Inhibition of chlorzoxazone metabolism by avitinib in rat liver microsomes.
Series [12] deals with CYP3As. The experiment in a line: Inhibition of midazolam metabolism by avitinib in human liver microsomes. Format: in vitro ADME.
Series [13] deals with T8, CYP2E1 (Homo sapiens, UniProt P05181). To be noted: HLMs.
The target of series [14] is T9, cyp1a2 (Rattus norvegicus, UniProt P04799).
T9 sequence (P04799 1-513): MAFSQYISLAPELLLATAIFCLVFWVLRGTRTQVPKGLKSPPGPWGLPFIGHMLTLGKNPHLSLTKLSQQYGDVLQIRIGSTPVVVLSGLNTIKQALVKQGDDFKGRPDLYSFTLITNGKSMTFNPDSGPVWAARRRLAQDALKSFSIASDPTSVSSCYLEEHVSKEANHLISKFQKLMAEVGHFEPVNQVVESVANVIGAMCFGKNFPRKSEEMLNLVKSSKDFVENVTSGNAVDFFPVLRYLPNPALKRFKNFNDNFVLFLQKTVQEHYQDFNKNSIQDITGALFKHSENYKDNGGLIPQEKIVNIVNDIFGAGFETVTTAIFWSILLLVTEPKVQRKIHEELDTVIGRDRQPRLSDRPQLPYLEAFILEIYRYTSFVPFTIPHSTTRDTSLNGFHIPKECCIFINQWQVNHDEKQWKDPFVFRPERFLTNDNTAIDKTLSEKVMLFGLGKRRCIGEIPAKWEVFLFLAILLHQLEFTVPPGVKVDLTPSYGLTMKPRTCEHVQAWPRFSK
The experiment in a line: Inhibition of phenacetin metabolism by avitinib in rat liver microsomes.

For series [15], the system named is cyp3as. As to the kind of experiment: Inhibition of midazolam metabolism by avitinib in rat liver microsomes.
Series [16] addresses T7, CYP2B6. The settings on record: HLMs.
Series [17] concerns the target T1, CYP2C9. The settings on record: HLMs.
Series [18] addresses T8, CYP2E1. As to the kind of experiment: biochemical.
The mark [19] stands for this setting: multiple-doses 30 mg/kg avitinib (7 days).
Where [20] appears, read: avitinib 30 mg/kg multiple-doses or single-dose vs control.

Where two headings read alike, the source gives them in different places.

cyp2e1, sequence (P05182 whole entry): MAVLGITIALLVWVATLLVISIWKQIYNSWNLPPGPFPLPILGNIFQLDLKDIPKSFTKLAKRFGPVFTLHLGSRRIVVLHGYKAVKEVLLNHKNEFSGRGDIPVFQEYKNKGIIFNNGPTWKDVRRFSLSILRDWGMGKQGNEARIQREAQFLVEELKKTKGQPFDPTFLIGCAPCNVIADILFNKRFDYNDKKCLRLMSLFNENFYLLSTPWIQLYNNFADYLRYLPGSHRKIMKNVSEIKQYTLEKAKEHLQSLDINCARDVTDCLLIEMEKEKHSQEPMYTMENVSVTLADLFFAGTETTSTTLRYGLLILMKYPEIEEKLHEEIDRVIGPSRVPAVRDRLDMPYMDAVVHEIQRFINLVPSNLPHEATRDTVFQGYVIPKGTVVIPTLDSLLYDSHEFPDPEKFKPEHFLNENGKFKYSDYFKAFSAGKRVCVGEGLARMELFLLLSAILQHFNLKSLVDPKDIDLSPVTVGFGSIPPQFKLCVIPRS
T1 sequence (P11712 whole entry): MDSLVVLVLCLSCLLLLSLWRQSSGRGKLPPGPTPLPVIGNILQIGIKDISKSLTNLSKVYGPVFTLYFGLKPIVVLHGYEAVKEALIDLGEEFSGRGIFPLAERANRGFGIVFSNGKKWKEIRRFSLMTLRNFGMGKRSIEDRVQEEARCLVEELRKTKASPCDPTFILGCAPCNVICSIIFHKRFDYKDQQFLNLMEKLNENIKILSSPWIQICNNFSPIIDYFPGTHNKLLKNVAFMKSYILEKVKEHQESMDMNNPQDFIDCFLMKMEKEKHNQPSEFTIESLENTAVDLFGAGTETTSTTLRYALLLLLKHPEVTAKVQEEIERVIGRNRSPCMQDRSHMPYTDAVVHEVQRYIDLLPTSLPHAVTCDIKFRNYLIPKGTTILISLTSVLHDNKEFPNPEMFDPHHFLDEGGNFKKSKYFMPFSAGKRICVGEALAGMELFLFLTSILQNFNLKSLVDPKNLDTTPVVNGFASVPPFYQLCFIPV
T4 sequence (P10635 whole entry): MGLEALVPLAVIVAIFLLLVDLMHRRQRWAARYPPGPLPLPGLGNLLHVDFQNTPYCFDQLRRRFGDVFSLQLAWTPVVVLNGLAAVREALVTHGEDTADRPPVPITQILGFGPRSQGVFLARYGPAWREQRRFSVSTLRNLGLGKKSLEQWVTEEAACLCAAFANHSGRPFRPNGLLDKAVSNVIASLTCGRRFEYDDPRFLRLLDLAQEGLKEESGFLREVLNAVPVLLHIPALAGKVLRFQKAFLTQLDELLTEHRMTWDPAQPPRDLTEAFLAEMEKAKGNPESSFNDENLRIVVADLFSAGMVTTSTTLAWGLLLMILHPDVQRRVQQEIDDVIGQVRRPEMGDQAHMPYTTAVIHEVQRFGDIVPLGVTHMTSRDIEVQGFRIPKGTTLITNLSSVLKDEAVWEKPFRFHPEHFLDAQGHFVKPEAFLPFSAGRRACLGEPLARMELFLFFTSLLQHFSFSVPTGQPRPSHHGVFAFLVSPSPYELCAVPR
T8 sequence (P05181 whole entry): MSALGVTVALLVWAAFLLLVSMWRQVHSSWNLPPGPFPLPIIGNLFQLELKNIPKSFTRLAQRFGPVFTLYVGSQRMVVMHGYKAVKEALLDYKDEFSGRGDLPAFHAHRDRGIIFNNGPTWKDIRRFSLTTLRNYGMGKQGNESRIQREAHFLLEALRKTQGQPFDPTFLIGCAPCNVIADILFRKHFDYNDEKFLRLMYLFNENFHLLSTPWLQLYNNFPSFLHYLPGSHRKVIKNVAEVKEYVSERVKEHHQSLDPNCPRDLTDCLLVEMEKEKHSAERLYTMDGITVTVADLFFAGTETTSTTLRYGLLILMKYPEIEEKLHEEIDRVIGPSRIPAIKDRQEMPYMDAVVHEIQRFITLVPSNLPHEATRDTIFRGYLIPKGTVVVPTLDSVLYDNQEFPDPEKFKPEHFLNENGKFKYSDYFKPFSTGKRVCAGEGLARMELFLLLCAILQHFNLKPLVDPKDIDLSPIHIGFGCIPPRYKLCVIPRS

Turning to `CC(NC(C)(C)C)C(=O)c1cccc(Cl)c1` (stereo not drawn) [Bupropion], in [1] (setting [19]), the “reduction of CLz/F compared with control group” value (from here on “reduction of CLz/F”) amounted to 57.54% and the “reduction of Vz/F compared with control group” value (from here on “reduction of Vz/F”) is on record as 62.74%. Moreover, in [1] (single-dose 30 mg/kg avitinib), the “reduction of CLz/F” value came to 53.96% and the “reduction of Vz/F” value came to 64.59%.
`COc1ccc2c(c1)[C@]13CCCC[C@@H]1[C@H](C2)N(C)CC3` [Dextromethorphan]: the “change in Tmax values after avitinib (in words)” value in [1] (setting [20]) is listed as “No significant changes”. Besides, the “reduction of CLz/F” value was 82.22% in series [1] (setting [19]) and 67.78% in series [1] (single-dose 30 mg/kg avitinib). Besides, the “reduction of Vz/F” value stood at 73.53% in series [1] (setting [19]) and 69.7% in series [1] (single-dose 30 mg/kg avitinib).
`Cc1ncc2n1-c1ccc(Cl)cc1C(c1ccccc1F)=NC2` [Midazolam]: the “difference in Cmax after avitinib (in words)” value in series [1] (setting [20]) is “No significant difference”.
Take `CCOc1ccc(NC(C)=O)cc1` [Phenacetin]: in series [1] (setting [20]), the “change in t1/2 values after avitinib (in words)” value is recorded as “no significant change”. Moreover, the “reduction of CLz/F” value in [1] (setting [19]) is listed as 63.17%; in series [1] (single-dose 30 mg/kg avitinib), 39.52%. In series [1] (setting [19]), the “reduction of Vz/F” value was found to be 63.09%.
For `CCCCNC(=O)NS(=O)(=O)c1ccc(C)cc1` [Tolbutamide], the “difference in Cmax after avitinib (in words)” value in series [1] (setting [20]) is listed as “No significant difference”.
On to `C=CC(=O)Nc1cccc(Oc2nc(Nc3ccc(N4CCN(C)CC4)c(F)c3)nc3[nH]ccc23)c1` [avitinib, Avitinib], for which the IC50 in series [2] worked out at 6.91 µM; in [3], 42.2 µM; in series [4] it was 44.4 µM; in [5], 56.6 µM; in series [6], 6.39 µM; in [8] it was 22.6 µM. Further, the IC50 amounted to 48.4 µM in series [10], 23.2 µM in series [11], 15.8 µM in [14] and 57.1 µM in [18]. In addition, the “inhibitory effect on cyp2c11 (grade in words)” value in series [3] (RLMs) is reported as “weak”. In series [4] (RLMs), the “inhibitory effect on cyp2d1 (grade in words)” value was “weak”. For the same compound, the “inhibitory effect on cyp2b1 (grade in words)” value in [6] (RLMs) is recorded as “moderate”. Besides, the “inhibitory effect on CYP1A2 (grade in words)” value in series [7] is reported as “weak”. The “inhibitory effect on CYP2D6 (grade in words)” value in series [9] is “weak”. The “inhibitory effect on cyp2e1 (grade in words)” value in series [11] (RLMs) is recorded as “weak”. For the same compound, in [12] (HLMs), the “inhibitory effect on CYP3As (grade in words)” value is given as “weak”. For the same compound, the IC50 at 30 min in series [12] (human, human liver microsomes, probe midazolam (5 μM)) worked out at 59.6 µM; in series [15] (male, Sprague-Dawley, rat, rat liver microsomes, probe midazolam (5 μM)), 27.6 µM. Also, the “inhibitory effect on CYP2E1 (grade in words)” value in series [13] is recorded as “weak”. In series [14] (RLMs), the “inhibitory effect on cyp1a2 (grade in words)” value is listed as “weak”. Also, the “inhibitory effect on cyp3as (grade in words)” value in series [15] (RLMs) was “weak”. In addition, in [16], the “inhibitory effect on CYP2B6 (grade in words)” value is reported as “weak”. Also, the “inhibitory effect on CYP2C9 (grade in words)” value in series [17] is reported as “moderate”.

A word on the IC50: it is the concentration needed to halve the response being measured.
